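Values below derive from 48-hour exposures of cells grown in 96-well plates, with endpoints linearly interpolated between the two concentrations bracketing the appropriate inhibition level. At the GI50, growth is halved.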 Activity calls are given as the source filed them. No stated cut-off is given here; in the data, active = GI50 up to about 1.1 µM and inactive = higher.
Assays:
Assay in all cases: NCI anticancer screen, dose series, 48 h
DLD-1 = tested on: DLD-1
DMS-273 = tested on: DMS-273
HOP-18 = tested on: HOP-18
KM-20L2 = tested on: KM-20L2
LXFL 529 = tested on: LXFL 529
M19-MEL = tested on: M19-MEL
RXF 631 = tested on: RXF 631
XF498 = tested on: XF498
DMS-114 = tested on: DMS-114

SMILES | GI50 (DLD-1) | GI50 (DMS-273) | GI50 (HOP-18) | GI50 (KM-20L2) | GI50 (LXFL 529) | GI50 (M19-MEL) | GI50 (RXF 631) | GI50 (XF498) | GI50 (DMS-114)
O=[N+]([O-])c1cc(I)cc(/C=N/NS(=O)(=O)c2ccc(Cl)cc2)c1O | 26 µM (inactive) | 19.8 µM (inactive) | 19.1 µM (inactive) | 36 µM (inactive) | 19.4 µM (inactive) | 25.2 µM (inactive) | 22.7 µM (inactive) | – | –
C/C(=N\NC(N)=O)c1sc(-c2nc(C)c(/C(C)=N/NC(N)=O)s2)nc1C | 46.6 µM (inactive) | 21.1 µM (inactive) | > 100 µM (inactive) | 49.3 µM (inactive) | > 100 µM (inactive) | > 100 µM (inactive) | – | > 100 µM (inactive) | –
CC(=O)Nc1ccc(C(=O)N2N=C(C)/C(=C/c3ccccc3O)C2=O)cc1 | > 100 µM (inactive) | > 100 µM (inactive) | 49.3 µM (inactive) | – | – | > 100 µM (inactive) | – | > 100 µM (inactive) | > 100 µM (inactive)
O=C(O)CCC1(Br)CCCCC(Br)C1=O (stereo not drawn) | – | > 100 µM (inactive) | 32.8 µM (inactive) | > 100 µM (inactive) | > 100 µM (inactive) | > 100 µM (inactive) | – | > 100 µM (inactive) | > 100 µM (inactive)
Cc1nc2c(n1-c1ccc(Br)cc1)C(=O)c1ccccc1C2=O | 7.59 µM (inactive) | 4.49 µM (inactive) | – | – | – | – | 2.06 µM (inactive) | – | 26 µM (inactive)
COc1ccccc1/C=C(\C#N)C(=O)c1ccccc1 | – | > 100 µM (inactive) | – | > 100 µM (inactive) | – | > 100 µM (inactive) | – | > 100 µM (inactive) | > 100 µM (inactive)
Cc1ccc(/C=N/C23CC4CC(CC(C4)C2)C3)cc1 | – | > 100 µM (inactive) | – | > 100 µM (inactive) | – | > 100 µM (inactive) | – | 83 µM (inactive) | 27.5 µM (inactive)
c1nc2cscc2c2cscc12 | – | > 100 µM (inactive) | – | – | > 100 µM (inactive) | > 100 µM (inactive) | – | > 100 µM (inactive) | > 100 µM (inactive)
COc1cccc(NC(=O)CSc2nnc(-c3ccc(/N=C\c4ccc(Cl)cc4)cc3)o2)c1 | – | > 10 µM (inactive) | 40 µM (inactive) | 16.9 µM (inactive) | 19.8 µM (inactive) | 22.8 µM (inactive) | – | 19.2 µM (inactive) | 20.5 µM (inactive)
C/C(CC(=O)Nc1ccc(Cl)cc1)=N\NC(N)=S | 18.3 µM (inactive) | 8.09 µM (inactive) | – | 13.9 µM (inactive) | 5.47 µM (inactive) | 66.5 µM (inactive) | > 100 µM (inactive) | > 100 µM (inactive) | 39.1 µM (inactive)
C[C@]12Cc3conc3C(O)=C1CC[C@@H]1C2CC[C@@]2(C)C1CC[C@@H]2O (stereo partly drawn) | – | 5.22 µM (inactive) | 41 µM (inactive) | 29.5 µM (inactive) | 15 µM (inactive) | 11.7 µM (inactive) | – | 15 µM (inactive) | –
CCCCCCCCCCCCCc1nnn[nH]1 | 17.1 µM (inactive) | – | 15 µM (inactive) | 20.2 µM (inactive) | 17.3 µM (inactive) | 19.7 µM (inactive) | 15.4 µM (inactive) | – | 18.5 µM (inactive)
CC(=O)Oc1ccc2c(=O)c(C(C)=O)coc2c1 | – | > 100 µM (inactive) | – | > 100 µM (inactive) | > 100 µM (inactive) | > 100 µM (inactive) | – | 83.9 µM (inactive) | –
CCC(O)C1Cc2c(C)cc3c(c2O1)C(=O)c1ccccc1C3=O (stereo not drawn) | 42 µM (inactive) | 28.7 µM (inactive) | 17.2 µM (inactive) | 35.2 µM (inactive) | 28.8 µM (inactive) | 41.7 µM (inactive) | – | 14.3 µM (inactive) | 25.4 µM (inactive)
NCCn1cnc2nc(NC(=O)c3ccccc3)[nH]c(=O)c21 | > 100 µM (inactive) | – | > 100 µM (inactive) | > 100 µM (inactive) | > 100 µM (inactive) | > 100 µM (inactive) | > 100 µM (inactive) | – | > 100 µM (inactive)
Cc1ccc(S(=O)(=O)c2ccc(N)cc2)cc1 | > 100 µM (inactive) | > 100 µM (inactive) | – | > 100 µM (inactive) | > 100 µM (inactive) | > 100 µM (inactive) | > 100 µM (inactive) | > 100 µM (inactive) | –
CCCCCCCCC(=O)NCCN(CCN)C(=O)CCCCCCCC | 5.37 µM (inactive) | 2.87 µM (inactive) | 16.7 µM (inactive) | 5.04 µM (inactive) | 3.36 µM (inactive) | 5.74 µM (inactive) | 4.08 µM (inactive) | 2.42 µM (inactive) | 4.79 µM (inactive)
N/N=C(/Cc1nc2ccc(C(=O)c3ccccc3)cc2nc1O)C(=O)Nc1ccc([N+](=O)[O-])cc1[N+](=O)[O-] | – | > 10 µM (inactive) | 35.5 µM (inactive) | > 100 µM (inactive) | > 10 µM (inactive) | > 10 µM (inactive) | – | 8.07 µM (inactive) | > 10 µM (inactive)
O=c1[nH]n2c(=O)cc[nH]c2c1-c1nnns1 | > 100 µM (inactive) | > 100 µM (inactive) | – | > 100 µM (inactive) | > 100 µM (inactive) | > 100 µM (inactive) | – | > 100 µM (inactive) | > 100 µM (inactive)
COC(=O)NC(=O)c1cn(C2CCCCC2)c(=O)[nH]c1=O | > 100 µM (inactive) | > 100 µM (inactive) | > 100 µM (inactive) | > 100 µM (inactive) | > 100 µM (inactive) | > 100 µM (inactive) | – | – | > 100 µM (inactive)
O=C(OCCOCBr)c1ccccc1 | > 100 µM (inactive) | > 100 µM (inactive) | > 100 µM (inactive) | > 100 µM (inactive) | > 100 µM (inactive) | – | > 100 µM (inactive) | – | > 100 µM (inactive)
CC(=O)O[C@]1(C)CCC2C(C)C(=O)OC2C2C(C)[C@@H](O)CC21 (stereo partly drawn) | 41.4 µM (inactive) | 22.4 µM (inactive) | 40.6 µM (inactive) | 29.3 µM (inactive) | 21.7 µM (inactive) | 23.2 µM (inactive) | – | – | –
Cc1nn(C)c(=S)n(C)c1=O | 3.16 µM (inactive) | 0.427 µM (active) | 0.43 µM (active) | 24.9 µM (inactive) | 0.515 µM (active) | 0.624 µM (active) | – | 1.15 µM (inactive) | 0.269 µM (active)
Clc1ccc2c(NCCCCCCNc3ccnc4cc(Cl)ccc34)ccnc2c1 | 3.03 µM (inactive) | 2.98 µM (inactive) | – | 1.99 µM (inactive) | 2.33 µM (inactive) | 3.13 µM (inactive) | 2.44 µM (inactive) | 1.57 µM (inactive) | 1.8 µM (inactive)
COc1cc(/C=C2\CCC/C(=C\c3ccc(O)c(OC)c3)C2=O)ccc1O [CYCLOVALONE] | 1.75 µM (inactive) | 1.51 µM (inactive) | 2.74 µM (inactive) | 15.2 µM (inactive) | 1.85 µM (inactive) | 1.86 µM (inactive) | – | 5.7 µM (inactive) | 1.77 µM (inactive)

— ChEMBL document CHEMBL1201862, “PubChem BioAssay data set” (2004)
